This is an account of results in patent US10670605B2, “Cysteine reactive probes and uses thereof” (The Scripps Research Institute, priority 2015, dated 2020).

Holding throughout (test): Competitive isoTOP-ABPP in situ (fragment-treated cells)
Common to all, as to assay type: cell-based

Experiment [1] deals with T1, cysteines in MDA-MB-231 and Ramos cells (Homo sapiens, UniProt P42765).
T1 sequence (P42765 1-397): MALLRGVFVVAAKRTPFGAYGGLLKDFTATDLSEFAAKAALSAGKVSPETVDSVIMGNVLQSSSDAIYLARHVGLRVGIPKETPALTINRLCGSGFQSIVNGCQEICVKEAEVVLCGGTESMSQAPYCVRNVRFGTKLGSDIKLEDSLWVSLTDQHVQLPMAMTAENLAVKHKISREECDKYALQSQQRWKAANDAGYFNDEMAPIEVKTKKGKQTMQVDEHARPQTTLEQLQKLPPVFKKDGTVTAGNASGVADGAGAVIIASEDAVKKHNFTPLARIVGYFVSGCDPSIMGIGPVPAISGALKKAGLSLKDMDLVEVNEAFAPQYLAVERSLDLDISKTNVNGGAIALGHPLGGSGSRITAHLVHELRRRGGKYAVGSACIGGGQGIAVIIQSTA
The settings on record: 200 μM, insitu.

Experiment [2] deals with T2, cysteines in MDA-MB-231 and Ramos cells (Homo sapiens, UniProt P24752).
T2 sequence (P24752 34-427): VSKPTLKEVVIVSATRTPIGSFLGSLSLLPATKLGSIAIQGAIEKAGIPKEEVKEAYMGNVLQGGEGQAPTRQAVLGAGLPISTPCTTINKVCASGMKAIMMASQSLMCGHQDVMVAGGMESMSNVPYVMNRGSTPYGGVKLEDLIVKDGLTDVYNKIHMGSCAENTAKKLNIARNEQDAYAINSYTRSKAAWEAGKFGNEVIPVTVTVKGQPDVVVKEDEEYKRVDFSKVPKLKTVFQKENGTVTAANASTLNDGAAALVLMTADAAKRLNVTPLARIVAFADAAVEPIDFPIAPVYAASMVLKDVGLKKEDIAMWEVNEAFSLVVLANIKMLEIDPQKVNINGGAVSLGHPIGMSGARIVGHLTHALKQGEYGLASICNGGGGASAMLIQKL

Experiment [3] has as its target T3, cysteines in MDA-MB-231 and Ramos cells (Homo sapiens, UniProt Q9NQC3).
T3 sequence (Q9NQC3 1-1192): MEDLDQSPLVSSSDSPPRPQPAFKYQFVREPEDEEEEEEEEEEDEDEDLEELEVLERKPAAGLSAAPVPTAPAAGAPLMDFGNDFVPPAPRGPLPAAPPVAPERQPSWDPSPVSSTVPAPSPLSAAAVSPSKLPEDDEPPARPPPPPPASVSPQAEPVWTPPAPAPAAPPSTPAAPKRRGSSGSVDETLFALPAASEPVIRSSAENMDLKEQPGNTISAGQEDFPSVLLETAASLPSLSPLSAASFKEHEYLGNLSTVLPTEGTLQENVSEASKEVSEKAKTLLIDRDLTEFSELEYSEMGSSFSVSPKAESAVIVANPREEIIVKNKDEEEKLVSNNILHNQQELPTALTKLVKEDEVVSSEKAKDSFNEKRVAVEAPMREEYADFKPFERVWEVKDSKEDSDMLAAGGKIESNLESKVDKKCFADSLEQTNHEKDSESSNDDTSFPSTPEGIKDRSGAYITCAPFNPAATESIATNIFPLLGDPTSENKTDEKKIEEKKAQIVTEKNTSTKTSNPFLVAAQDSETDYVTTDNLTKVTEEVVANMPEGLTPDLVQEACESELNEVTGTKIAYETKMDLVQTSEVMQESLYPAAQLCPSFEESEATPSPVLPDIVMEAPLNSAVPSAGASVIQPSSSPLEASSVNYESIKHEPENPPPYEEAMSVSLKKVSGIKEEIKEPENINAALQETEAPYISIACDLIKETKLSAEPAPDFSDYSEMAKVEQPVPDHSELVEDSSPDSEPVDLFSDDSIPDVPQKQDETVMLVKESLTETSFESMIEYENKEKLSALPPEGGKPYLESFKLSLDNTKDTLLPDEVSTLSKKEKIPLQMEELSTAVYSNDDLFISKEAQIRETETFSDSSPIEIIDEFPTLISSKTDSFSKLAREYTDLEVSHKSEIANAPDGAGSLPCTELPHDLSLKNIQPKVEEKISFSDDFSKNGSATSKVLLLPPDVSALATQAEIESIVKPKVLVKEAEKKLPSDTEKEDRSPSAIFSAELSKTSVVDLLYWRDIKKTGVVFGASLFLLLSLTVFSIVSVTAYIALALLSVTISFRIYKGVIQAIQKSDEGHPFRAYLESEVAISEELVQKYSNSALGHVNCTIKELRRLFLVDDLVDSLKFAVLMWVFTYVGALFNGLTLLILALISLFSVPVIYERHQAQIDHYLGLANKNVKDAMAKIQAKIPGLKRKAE

Structures are written as SMILES.

In the case of `O=C(CCl)NC12CC3CC(CC(C3)C1)C2` [compound 21], in experiment [1] (231), the “isoTOP-ABPP ratio P42765_C92” value is 1.3. Also, in experiment [2] (200 μM, insitu, 231), the “isoTOP-ABPP ratio P24752_C119” value is 1.6; the “isoTOP-ABPP ratio P24752_C413” value amounted to 1.5; the “isoTOP-ABPP ratio, P24752_C126” value is 1.4; the “isoTOP-ABPP ratio, P24752_C196” value turned out to be 1.5. Also, the “isoTOP-ABPP ratio Q9NQC3_C1101” value in experiment [3] (200 μM, insitu, 231) worked out at 2.1.

For the molecule `COc1ccc2c(c1)CCCN2C(=O)CCl` [compound 2], the “isoTOP-ABPP reactivity P42765_C92 ACAA2” value in experiment [1] (231) is on record as 20.0. In addition, in experiment [2] (200 μM, insitu, 231), the “isoTOP-ABPP reactivity P24752_C119 ACAT1” value amounted to 2.6, the “isoTOP-ABPP reactivity P24752_C126 ACAT1” value is 9.1, the “isoTOP-ABPP reactivity P24752_C196 ACAT1” value came out at 20.0 and the “isoTOP-ABPP reactivity P24752_C413 ACAT1” value is reported as 20.0. In experiment [3] (200 μM, insitu, 231), the “isoTOP-ABPP reactivity Q9NQC3_C1101 RTN4” value is 12.0.

For `Cn1cc(S(=O)(=O)N2CCOCC2)cc1C(=O)NC(=O)CCl` [compound 11], in experiment [2] (100 μM in situ 231), the “isoTOP-ABPP ratio P24752_C119” value came out at 1.2; the “isoTOP-ABPP ratio P24752_C413” value came to 1.2; the “isoTOP-ABPP ratio, P24752_C126” value is 1.2; the “isoTOP-ABPP ratio, P24752_C196” value came to 1.1. Moreover, the “isoTOP-ABPP ratio Q9NQC3_C1101” value in experiment [3] (100 μM in situ 231) amounted to 1.1.

For the molecule `COc1ccccc1OCCNC(=O)CCl` [compound 28], in experiment [2] (200 μM, insitu, 231), the “isoTOP-ABPP ratio P24752_C119” value is listed as 1.0; the “isoTOP-ABPP ratio P24752_C413” value came to 1.0; the “isoTOP-ABPP ratio, P24752_C126” value was determined as 1.2.

Turning to `O=C(CCl)NCCc1c[nH]c2ccccc12` [compound 13], the “isoTOP-ABPP ratio P42765_C92” value in experiment [1] (ramos) is 2.2. Besides, in experiment [2] (200 μM, insitu, 231), the “isoTOP-ABPP ratio P24752_C119” value worked out at 2.1 and the “isoTOP-ABPP ratio P24752_C413” value was found to be 3.5. In addition, in experiment [2] (200 μM, insitu, ramos), the “isoTOP-ABPP ratio P24752_C119” value was 2.8 and the “isoTOP-ABPP ratio P24752_C413” value was 20.0.

As to `Cc1ccc(C=C(C#N)C(=O)NCCN2CCOCC2)cc1` [compound 41], the “isoTOP-ABPP ratio P42765_C92” value in experiment [1] (231) turned out to be 1.1. In experiment [2] (200 μM, insitu, 231), the “isoTOP-ABPP ratio P24752_C119” value was determined as 1.9; the “isoTOP-ABPP ratio P24752_C413” value is on record as 0.9; the “isoTOP-ABPP ratio, P24752_C126” value is 0.8; the “isoTOP-ABPP ratio, P24752_C196” value turned out to be 0.9. Besides, the “isoTOP-ABPP ratio Q9NQC3_C1101” value in experiment [3] (200 μM, insitu, 231) was found to be 1.0.

Regarding `C=CC(=O)Nc1cc(F)c(N2CCN(C(=O)OC(C)(C)C)CC2)c(F)c1` [compound 38], in experiment [1] (231), the “isoTOP-ABPP ratio P42765_C92” value is 0.9. Also, in experiment [2] (200 μM, insitu, 231), the “isoTOP-ABPP ratio P24752_C119” value stood at 1.2; the “isoTOP-ABPP ratio P24752_C413” value stood at 1.1; the “isoTOP-ABPP ratio, P24752_C196” value came to 1.0. Moreover, the “isoTOP-ABPP ratio Q9NQC3_C1101” value in experiment [3] (200 μM, insitu, 231) is 20.0.

As for `C=CC(=O)N(Cc1cccnc1)c1cc(C(F)(F)F)cc(C(F)(F)F)c1` [compound 31], the “isoTOP-ABPP ratio P42765_C92” value in experiment [1] (231) is 0.8. Further, the “isoTOP-ABPP ratio P42765_C92” value in experiment [1] (ramos) came out at 1.2. In experiment [2] (200 μM, insitu, 231), the “isoTOP-ABPP ratio P24752_C119” value is reported as 0.6; the “isoTOP-ABPP ratio P24752_C413” value stood at 1.0; the “isoTOP-ABPP ratio, P24752_C126” value turned out to be 0.7. Further, the “isoTOP-ABPP ratio P24752_C119” value in experiment [2] (200 μM, insitu, ramos) is listed as 0.7. Also, the “isoTOP-ABPP ratio Q9NQC3_C1101” value in experiment [3] (200 μM, insitu, 231) is recorded as 12.8.

As to `COc1cc2c(cc1OC)CN(C(=O)CCl)CC2` [compound 8], the “isoTOP-ABPP reactivity P42765_C92 ACAA2” value in experiment [1] (231) turned out to be 20.0. Also, in experiment [2] (200 μM, insitu, 231), the “isoTOP-ABPP reactivity P24752_C119 ACAT1” value is recorded as 5.5, the “isoTOP-ABPP reactivity P24752_C126 ACAT1” value worked out at 4.5 and the “isoTOP-ABPP reactivity P24752_C413 ACAT1” value was found to be 20.0.
